For orientation: IC50 means the concentration needed to halve the response being measured. Low values mean inhibition by little substance, high ones a need for much substance. Usually Ki stands for the equilibrium dissociation constant of an inhibitor or competing ligand from its target.

Each structure is given as a SMILES string. Calls of active or inactive are those of the source. No cut-off for these calls is given here.

Experimental findings from ChEMBL document CHEMBL1138342, “Dual inhibitors of inosine monophosphate dehydrogenase and histone deacetylases for cancer treatment” (J Med Chem, 2007) are described below.

Test [1] deals with K562. The experiment in a line: Differentiation of K562 cells at 0.25 uM after 5 days by […]. It counts as functional, Homo sapiens. A general note: Tetrazolium assays rely on reduction of a dye to a coloured formazan, in cell work by metabolically active cells.
Test [2] has as its system K562. The test can be described thus: cells. It counts as functional, cell-based. Particulars: Homo sapiens, K562, 72 h.
Test [3] deals with Inosine-5'-monophosphate dehydrogenase 1 (Homo sapiens, UniProt P20839). The experiment in a line: Inhibition of human IMPDH 1.
Test [4] deals with Inosine-5'-monophosphate dehydrogenase 2 (Homo sapiens, UniProt P12268). The experiment in a line: Inhibition of human IMPDH 2.
The target of a further test is Histone deacetylase. Format: protein assay, Homo sapiens.
Test [5] has as its system K562. The test can be described thus: Differentiation of K562 cells at 0.50 uM after 5 days by […]. It counts as functional, Homo sapiens.
Test [6] relates to K562. The experiment in a line: Differentiation of K562 cells at 0.005 uM after 5 days by […]. Format: functional, Homo sapiens.

The compound `COc1c(C)c2c(c(O)c1C/C=C(\C)CCC(=O)O)C(=O)OC2` [MYCOPHENOLIC ACID] showed an Activity with K562 [1] of 46.4%.

Take `COc1c(C)c2c(c(OC)c1C/C=C(\C)CCC(=O)NO)C(=O)OC2`: the figures for the 50% inhibitory concentration (IC50) in the test with K562 [2] and at Histone deacetylase were 42300 nM and 14000 nM, respectively. The outcome in test [3] and in test [4] was inactive.

On to `COc1c(C)c2c(c(O)c1C/C=C(\C)CCC(=O)Nc1ccccc1N)C(=O)OC2`, for which the results for the IC50 in the test on K562 [2] and at Histone deacetylase were 60000 nM and over 100000 nM, respectively. In addition, the Ki in test [3] amounted to 2830 nM; in test [4] it was 650 nM.

`COc1c(C)c2c(c(O)c1C/C=C(\C)CCCC(=O)NO)C(=O)OC2`: the IC50 was found to be 10800 nM in the test with K562 [2] and 10400 nM against Histone deacetylase. Moreover, the results for the inhibition constant Ki in test [3] and in test [4] were 400 nM and 1100 nM, respectively.

Take `COc1c(C)c2c(c(O)c1CCC(C)CCC(=O)NO)C(=O)OC2` (stereo not given): the IC50 in the test on K562 [2] amounted to 44700 nM; against Histone deacetylase, 20100 nM. For the same compound, the figures for the Ki in test [3] and in test [4] were 2070 nM and 540 nM, respectively.

Regarding `COc1c(C)c2c(c(O)c1C/C=C(\C)CCC(=O)NO)C(=O)OC2` [MYCOPHENOLIC HYDROXAMIC ACID], the Activity in the test with K562 [1] was 75%. Besides, the concentration for half-maximal inhibition (IC50) in the test with K562 [2] turned out to be 4800 nM; at Histone deacetylase it was 5000 nM. Also, the inhibition constant Ki in test [3] came out at 70 nM; in test [4], 30 nM.

`O=C(CCCCCCC(=O)Nc1ccccc1)NO` [VORINOSTAT] displayed an Activity in the test with K562 [5] of 47.4%. The outcome in test [3] and in test [4] was inactive.

In the test on K562 [6], `COc1cc(NC(=O)CCCCCCC(=O)NO)ccc1-c1cnco1` registered an Activity of 87.8%. Further, the IC50 in the test with K562 [2] turned out to be 290 nM; on Histone deacetylase, 60 nM. Further, the inhibition constant (Ki) was found to be 5000 nM in test [3] and 1700 nM in test [4].
